Results: US20200368312A1 (priority 2017, published 2020)
Values after ≈ are worked out from the molar mass of the structure shown. Where two headings read alike, the source gives them in different places.

Legend:
[1] = test system: MRSA isolate ATCC BAA-1556; experiment: MIC, CLSI-guided broth susceptibility testing (Example 10); type: cell-based, Staphylococcus aureus
Protocol: (§1) MIC Testing: Glycopeptide compounds were dissolved in 100% DMSO. In vitro activities were determined using CLSI-guided broth susceptibility testing to measure drug minimum inhibitory concentrations (MICs) of the compounds against the quality control strain ATCC 29213 (MSSA) and the MRSA isolate ATCC BAA-1556. Glycopeptides are defined as compounds of Formula (I), and their respective R^1, R^2, R^3 and R^4 groups. X is —O— for each compound in Table 2.

[2] = test system: quality control strain ATCC 29213 (MSSA); experiment: as above; type: cell-based, Staphylococcus aureus
Protocol: as §1

Staphylococcus aureus = experiment: microbe, parasite or virus in culture; type: cell-based; settings: for MIC: Staphylococcus aureus, read-out: MIC
Enterococci = type: cell-based
Streptococci = experiment: Broth microdilution MIC, Streptococci (Example 11, Table 7); type: cell-based
S. epidermidis (CoNS) = experiment: Broth microdilution MIC, S. epidermidis (CoNS) (Table 7); type: cell-based
S. lugdenensis (CoNS) = experiment: Broth microdilution MIC, S. lugdenensis (CoNS) (Table 7); type: cell-based; settings: S. lugdenensis (CoNS) MMX 8724
S. haemolyticus (CoNS) = experiment: Broth microdilution MIC, S. haemolyticus (CoNS) (Table 7); type: cell-based; settings: S. haemolyticus (CoNS) MMX 529 ATCC 29970
S. hominis (CoNS) = experiment: Broth microdilution MIC, S. hominis (CoNS) (Table 7); type: cell-based; settings: S. hominis (CoNS) MMX 667 ATCC 27844
C. perfringens = type: cell-based
P. micros = experiment: Broth microdilution MIC, P. micros (Table 7); type: cell-based; settings: P. micros MMX 3546
P. anaerobius = experiment: Broth microdilution MIC, P. anaerobius (Table 7); type: cell-based; settings: P. anaerobius MMX 1208 ATCC 27337
P. acnes = experiment: Broth microdilution MIC, P. acnes (Table 7); type: cell-based

CNC(CC(C)C)C(=O)NC1C(=O)NC(CC(N)=O)C(=O)NC2C(=O)NC3C(=O)NC(C(=O)NC(C(=O)O)c4cc(O)cc(O)c4-c4cc3ccc4O)C(O)c3ccc(c(Cl)c3)Oc3cc2cc(c3OC2OC(CO)C(O)C(O)C2OC2CC(C)(NCc3ccc(-c4ccc(Cl)cc4)cc3)C(O)C(C)O2)Oc2ccc(cc2Cl)C1O (centres unmarked) [RV79]
MIC Values MRSA 1556 [1]: 0.016 µg/mL (≈ 0.0097 µM) | MIC Values MSSA 29213 [2]: 0.016 µg/mL (≈ 0.0097 µM)

CN[C@H](CC(C)C)C(=O)N[C@H]1C(=O)N[C@@H](CC(N)=O)C(=O)N[C@H]2C(=O)N[C@H]3C(=O)N[C@H](C(=O)N[C@H](C(=O)O)c4cc(O)cc(O)c4-c4cc3ccc4O)[C@H](O)c3ccc(c(Cl)c3)Oc3cc2cc(c3O[C@@H]2O[C@H](CO)[C@@H](O)[C@H](O)[C@H]2O[C@H]2C[C@](C)(N)[C@H](O)[C@H](C)O2)Oc2ccc(cc2Cl)[C@H]1O [Vancomycin]
RV40 activity as compared to Comparator (Staphylococcus aureus): 86 × | MIC (Staphylococcus aureus; ATCC 33591 / MRSA, S. aureus MMX 5717 ATCC 33591, MRSA): 1 µg/mL (≈ 0.69 µM) | MIC (Staphylococcus aureus; ATCC BAA-1756 / MRSA, S. aureus MMX 2011 ATCC BAA-1756, MRSA): 1 µg/mL (≈ 0.69 µM) | MIC (Staphylococcus aureus; MRSA, S. aureus MMX 2010, MRSA): 1 µg/mL (≈ 0.69 µM) | MIC (Staphylococcus aureus; MRSA, S. aureus MMX 3982, MRSA): 0.5 µg/mL (≈ 0.345 µM) | MIC (Staphylococcus aureus; MRSA, S. aureus MMX 5985, MRSA): 0.5 µg/mL (≈ 0.345 µM) | MIC (Staphylococcus aureus; MRSA, S. aureus MMX 5999, MRSA): 0.5 µg/mL (≈ 0.345 µM) | MIC (Staphylococcus aureus; MRSA, S. aureus MMX 7899, MRSA): 0.5 µg/mL (≈ 0.345 µM) | MIC (Staphylococcus aureus; MRSA, S. aureus MMX 7900, MRSA): 0.5 µg/mL (≈ 0.345 µM) | MIC (Staphylococcus aureus; MRSA, S. aureus MMX 7901, MRSA): 0.5 µg/mL (≈ 0.345 µM) | MIC (Staphylococcus aureus; MRSA, S. aureus MMX 7902, MRSA): 1 µg/mL (≈ 0.69 µM) | MIC (Staphylococcus aureus; MRSA, S. aureus MMX 7903, MRSA): 1 µg/mL (≈ 0.69 µM) | MIC (Staphylococcus aureus; MSSA, S. aureus MMX 2490, MSSA): 1 µg/mL (≈ 0.69 µM) | MIC (Staphylococcus aureus; MSSA, S. aureus MMX 7907, MSSA): 0.5 µg/mL (≈ 0.345 µM) | MIC (Staphylococcus aureus; MSSA, S. aureus MMX 7908, MSSA): 1 µg/mL (≈ 0.69 µM) | MIC (Staphylococcus aureus; S. aureus MMX 4665, hVISA): 4 µg/mL (≈ 2.76 µM) | MIC (Staphylococcus aureus; S. aureus MMX 5989, Mu3, hVISA): 1 µg/mL (≈ 0.69 µM) | MIC (Staphylococcus aureus; VISA, S. aureus MMX 1723, Mu50, VISA): 8 µg/mL (≈ 5.52 µM) | MIC (Staphylococcus aureus; VISA, S. aureus MMX 2124, VISA, DaptoNS): 4 µg/mL (≈ 2.76 µM) | MIC (Staphylococcus aureus; VISA, S. aureus MMX 4658, VISA): 4 µg/mL (≈ 2.76 µM) | MIC (Staphylococcus aureus; VISA, S. aureus MMX 4660, VISA): 4 µg/mL (≈ 2.76 µM) | MIC (Enterococci; E. faecalis MMX 101 ATCC 29212, VSE): 2 µg/mL (≈ 1.38 µM) | MIC (Enterococci; E. faecalis MMX 1086, VanA VRE): > 64 µg/mL | MIC (Enterococci; E. faecalis MMX 4176): 1 µg/mL (≈ 0.69 µM) | MIC (Enterococci; E. faecium MMX 173, VanB VRE): > 64 µg/mL | MIC (Enterococci; E. faecium MMX 851, VanA VRE): > 64 µg/mL | MIC (Enterococci; E. faecium MMX 4204): 0.5 µg/mL (≈ 0.345 µM) | MIC (Streptococci; S. agalactiae MMX 427 ATCC 13813): 0.25 µg/mL (≈ 0.173 µM) | MIC (Streptococci; S. agalactiae MMX 4088): 0.25 µg/mL (≈ 0.173 µM) | MIC (Streptococci; S. agalactiae MMX 4115, erm^R): 0.25 µg/mL (≈ 0.173 µM) | MIC (Streptococci; S. anginosus (AGS) MMX 1201 ATCC 33397): 0.5 µg/mL (≈ 0.345 µM) | MIC (Streptococci; S. constellatus (AGS) MMX 5677): 0.25 µg/mL (≈ 0.173 µM) | MIC (Streptococci; S. dysgalactiae MMX 5121): 0.25 µg/mL (≈ 0.173 µM) | MIC (Streptococci; S. dysgalactiae MMX 5123): 0.5 µg/mL (≈ 0.345 µM) | MIC (Streptococci; S. dysgalactiae MMX 5124): 0.25 µg/mL (≈ 0.173 µM) | MIC (Streptococci; S. mitis (MGS) MMX 1205 ATCC 49456): 0.5 µg/mL (≈ 0.345 µM) | MIC (Streptococci; S. mitis (MGS) MMX 5798): 0.25 µg/mL (≈ 0.173 µM) | MIC (Streptococci; S. oralis (MGS) MMX 5821): 0.25 µg/mL (≈ 0.173 µM) | MIC (Streptococci; S. pneumoniae MMX 432, PRSP): 0.25 µg/mL (≈ 0.173 µM) | MIC (Streptococci; S. pneumoniae MMX 747): 0.12 µg/mL (≈ 0.0828 µM) | MIC (Streptococci; S. pneumoniae MMX 1195 ATCC 49619, PISP): 0.25 µg/mL (≈ 0.173 µM) | MIC (Streptococci; S. pyogenes MMX 404 ATCC 19615): 0.25 µg/mL (≈ 0.173 µM) | MIC (Streptococci; S. pyogenes MMX 946, ermR): 0.25 µg/mL (≈ 0.173 µM) | MIC (Streptococci; S. pyogenes MMX 8778): 0.25 µg/mL (≈ 0.173 µM) | MIC (S. epidermidis (CoNS); S. epidermidis (CoNS) MMX 762, MRSE): 2 µg/mL (≈ 1.38 µM) | MIC (S. epidermidis (CoNS); S. epidermidis (CoNS) MMX 5145, MRSE): 1 µg/mL (≈ 0.69 µM) | MIC (S. lugdenensis (CoNS)): 0.5 µg/mL (≈ 0.345 µM) | MIC (S. haemolyticus (CoNS)): 1 µg/mL (≈ 0.69 µM) | MIC (S. hominis (CoNS)): 0.5 µg/mL (≈ 0.345 µM) | MIC (C. perfringens): 0.5 µg/mL (≈ 0.345 µM) | MIC (P. micros): 0.5 µg/mL (≈ 0.345 µM) | MIC (P. anaerobius): 0.25 µg/mL (≈ 0.173 µM) | MIC (P. acnes; P. acnes MMX 7942 ATCC 6919): 0.25 µg/mL (≈ 0.173 µM) | MIC (P. acnes; P. acnes MMX 7946 ATCC 11827): 0.25 µg/mL (≈ 0.173 µM)
